# Test results taken from patent US4717716A, “Immuno-regulator” (Nihon University, priority 1985, dated 1988).
# “And” between values parts separate entries of the source, which are not always exact repeats. Identical values can stand only once.
# Columns and labels:
# DDY male mouse = experiment: Acute toxicity of L-carnosine in mice; assay type: in vivo
# Experimental: L-carnosine was administered peritoneally or orally in different amounts to a group of 10 mice and acute toxic symptoms were observed 5 hours after administration. […] L-carnosine was dissolved in a physiological saline so as to give a dose of 0.1 to 0.3 ml/10 g.
# [1] = tested on: plaque-forming cells of DDY mouse immunized with sheep red blood cells (SRBC); experiment: PFC method (hemolytic plaque-forming cells) in mice immunized with SRBC; assay type: in vivo; details: for PFC Number per g. Spleen: 4 days after immunization; for PFC reaction: mouse of 5 weeks age, 2.5×10^8 SRBC
# [2] = tested on: anti-SRBC antibody in serum of mice immunized with SRBC; experiment: Determination of serum antibody value (hemagglutination titer, HA-titer); assay type: in vivo, mouse; details: for Anti-SRBC Antibody Value N: maximal positive dilution 2^N
# Experimental: Blood was collected in the PFC reaction from carotid arteries of a group of five mice, from which was separated a serum in a conventional manner for determination of hemagglutination titer (HA-titer). The test serum was diluted with a phosphate buffered saline (PBS) containing 0.5-1% of a serum from a normal rabbit, and was evaluated using SRBC. The maximal dilution showing positive reaction was represented by 2^N, wherein N represents an antibody value.
# [3] = tested on: male DDY mouse sensitized with picryl chloride; experiment: Delayed hypersensitivity reaction (picryl chloride contact dermatitis); assay type: in vivo; details: for Increase of Ear control %: 0 mg/kg/day = 100; for Thickness × 10^-3cm Increase of Ear: 1% picryl chloride, average of 8 mice ± S.D.
# Description: A male DDY mouse of 5 weeks are weighing about 20 g was used to detect its contact dermatitis by means of 2, 4, 6-trinitro-chlorobenzene (picryl chloride) (available from Tokyo Chemical Industry Co., Ltd). An ethanol solution of 1% picryl chloride was impregnated into 4-layered gauge (1×1 cm), which was then contacted with a shaved abdomen of the mouse for 10 seconds to cause primary sensitization. The secondary sensitization for test was caused on seventh day by applying an olive oil solution of 1% picryl chloride on both surfaces of one ear by means of a paint brush. The other ear had applied only olive oil as a control. After 24 hours, the mouse was anesthetized with ether, and thickness of the ear was determined in the order of 1/100 mm by a micrometer having precision of 1/100 mm. The delayed hypersensitivity reaction was calculated as follows: […]
# (Thickness of Ear Applied with Picryl Chloride after 24 Hours--Thickness of Ear before Application) minus (Thickness of Ear Applied with Olive Oil After 24 Hours--Thickness of Ear before Application).
# L-carnosine was administered subcutaneously in the indicated amount for 14 days. On the 7th day, sensitization was conducted by 1% picryl chloride, and examination was carried out on 7 days later. Values are shown in an average of 8 mices ±S.D.
# [4] = Physicochemical properties of L-carnosine
# [5] = formulated by LISA corporation in Spain since 10 years; cited from earlier work
# [6] = SRBC antigen amount 2.5 × 10^9, 100 mg/Kg/day S.C. for six days
# [7] = SRBC antigen amount 5 × 10^7, 100 mg/Kg/day S.C. for six days
# [8] = mice of 2 weeks age, 100 mg/Kg/day S.C., 2.5 × 10^8 SRBC
# [9] = mice of 5 weeks age, 100 mg/Kg/day S.C., 2.5 × 10^8 SRBC
# [10] = mice of 30 weeks age, 100 mg/Kg/day S.C., 2.5 × 10^8 SRBC
# [11] = 50 mg/kg/day subcutaneously for 14 days
# [12] = 250 mg/kg/day subcutaneously for 14 days
# [13] = 500 mg/kg/day subcutaneously for 14 days
smiles,measurement,setting,value
"NCCC(=O)N[C@@H](Cc1cnc[nH]1)C(=O)O [L-carnosine, β-alanyl-L-histidine]","acute toxicity, overall",DDY male mouse; DDY male mouse,very low toxicity
same,effective amount as fraction of acute toxicity LD50,"DDY male mouse; mouse, in vivo",1/181
same,mice killed,"DDY male mouse; mouse, in vivo",one of the 10
same,toxic effect of oral administration,"DDY male mouse; oral 15,000 mg/Kg, mice",little effect
same,LD50 (minimal lethal dose),"DDY male mouse; oral, DDY male mouse, value on 72 hours","> 14,930 mg/Kg"
same,toxic symptoms,"DDY male mouse; peritoneal 15,000 mg/Kg, from about 30 minutes, a half of the mice","depression of voluntary motility, abdominal position, depression and irregularity of respiration rate"
same,LD 100,"DDY male mouse; peritoneal administration, mice","15,000 mg/Kg"
same,LD50 (95% confidence limit),"DDY male mouse; peritoneal, DDY male mouse, value on 72 hours","9,087 (8,320-9,925) mg/Kg and 9,087 mg/Kg"
same,PFC Number per Chamber,[1]; 25 mg/kg,53.0 ± 6.1
same,PFC Number per Spleen,[1]; 25 mg/kg,10.7 × 10^4
same,PFC Number per g. Spleen (%),"[1]; 25 mg/kg for 6 days, 2.5 × 10^8 SRBC, 0 mg/kg = 100",133%
same,PFC Number per g. Spleen,"[1]; 25 mg/kg for 6 days, 2.5 × 10^8 SRBC, mice",7.6 × 10^5
same,PFC Number per Chamber (%),"[1]; 25 mg/kg, 144 h",88%
same,PFC Number per Spleen (%),"[1]; 25 mg/kg, 144 h",123%
same,Weight of Spleen (%),"[1]; 25 mg/kg, 144 h",92%
same,PFC Number per Chamber,[1]; 50 mg/kg,73.6 ± 6.2
same,PFC Number per Spleen,[1]; 50 mg/kg,14.9 × 10^4
same,PFC Number per g. Spleen (%),"[1]; 50 mg/kg for 6 days, 2.5 × 10^8 SRBC, 0 mg/kg = 100",149%
same,PFC Number per g. Spleen,"[1]; 50 mg/kg for 6 days, 2.5 × 10^8 SRBC, mice",8.5 × 10^5
same,PFC Number per Chamber (%),"[1]; 50 mg/kg, 144 h",122%
same,PFC Number per Spleen (%),"[1]; 50 mg/kg, 144 h",171%
same,Weight of Spleen (%),"[1]; 50 mg/kg, 144 h",116%
same,effect on the PFC response,[1]; 100 mg/kg,No effect
same,PFC decreased,"[1]; 100 mg/kg, 144 h",30%
same,PFC increased,"[1]; 100 mg/kg, 144 h",30%
same,PFC Number per Chamber,[1]; 250 mg/kg,69.8 ± 6.5
same,PFC Number per Spleen,[1]; 250 mg/kg,14.6 × 10^4
same,PFC Number per g. Spleen (%),"[1]; 250 mg/kg for 6 days, 2.5 × 10^8 SRBC, 0 mg/kg = 100",167%
same,PFC Number per g. Spleen,"[1]; 250 mg/kg for 6 days, 2.5 × 10^8 SRBC, mice",9.5 × 10^5
same,PFC Number per Chamber (%),"[1]; 250 mg/kg, 144 h",116%
same,PFC Number per Spleen (%),"[1]; 250 mg/kg, 144 h",168%
same,Weight of Spleen (%),"[1]; 250 mg/kg, 144 h",100%
same,PFC Number per Chamber,[1]; 500 mg/kg,64.8 ± 4.9
same,PFC Number per Spleen,[1]; 500 mg/kg,8.3 × 10^4
same,PFC Number per g. Spleen (%),"[1]; 500 mg/kg for 6 days, 2.5 × 10^8 SRBC, 0 mg/kg = 100",107%
same,PFC Number per g. Spleen,"[1]; 500 mg/kg for 6 days, 2.5 × 10^8 SRBC, mice",6.1 × 10^5
same,PFC Number per Chamber (%),"[1]; 500 mg/kg, 144 h",107%
same,PFC Number per Spleen (%),"[1]; 500 mg/kg, 144 h",95%
same,Weight of Spleen (%),"[1]; 500 mg/kg, 144 h",89%
same,PFC Number per g. Spleen (%),"[1]; 2 weeks age, 100 mg/Kg/day S.C., 2.5 × 10^8 SRBC, normal = 100",64%
same,PFC Number per g. Spleen (%),"[1]; 5 weeks age, 100 mg/Kg/day S.C., 2.5 × 10^8 SRBC, normal = 100",110%
same,PFC Number per g. Spleen (%),"[1]; 30 weeks age, 100 mg/Kg/day S.C., 2.5 × 10^8 SRBC, normal = 100",177%
same,PFC Number per g. Spleen (%),"[1]; SRBC 2.5 × 10^9, 100 mg/Kg/day S.C. six days, normal = 100",71%
same,PFC Number per g. Spleen (%),"[1]; SRBC 5 × 10^7, 100 mg/Kg/day S.C. six days, normal = 100",119%
same,PFC Number per g. Spleen (%),"[1]; SRBC 5 × 10^8, 100 mg/Kg/day S.C. six days, normal = 100",53%
same,PFC Number per g. Spleen,[1]; [6],10.2 × 10^5
same,PFC Number per g. Spleen,[1]; [7],5.0 × 10^5
same,PFC Number per g. Spleen,"[1]; SRBC antigen amount 5 × 10^8, 100 mg/Kg/day S.C. for six days",8.2 × 10^5
same,effect on the PFC response,"[1]; immature mouse of 2 weeks age, 100 mg/Kg for 9 days",suppressed
same,PFC Number per g. Spleen,[1]; [8],4.8 × 10^5
same,PFC Number per g. Spleen,[1]; [9],12.5 × 10^5
same,PFC Number per g. Spleen,[1]; [10],11.7 × 10^5
same,PFC reaction,[1]; 50 and 250 mg/Kg for 6 days,increased
same,PFC reaction,[1]; dose of more than 500 mg/Kg,subsided
same,effect on the PFC response,"[1]; old mouse of 30 weeks age, 100 mg/Kg for 9 days",doubly strengthened
same,optimum dosage for the immuno-regulatory action,[1]; sc,100 mg/kg/day
same,Weight of Spleen (%),"[1]; sc, 100 mg/kg/day, 336 h",93%
same,PFC Number per Chamber (%),"[1]; sc, 100 mg/kg/day, 840 h",107%
same,PFC Number per Spleen (%),"[1]; sc, 100 mg/kg/day, 840 h",110%
same,Weight of Spleen (%),"[1]; sc, 100 mg/kg/day, 840 h",100%
same,Weight of Spleen (%),"[1]; sc, 100 mg/kg/day, 5040 h",121%
same,Anti-SRBC Antibody Value N,"[2]; 25 mg/kg for 6 days, 2.5 × 10^8 SRBC",9
same,Anti-SRBC Antibody Value N,"[2]; 50 mg/kg for 6 days, 2.5 × 10^8 SRBC",10
same,Anti-SRBC Antibody Value N,"[2]; 250 mg/kg for 6 days, 2.5 × 10^8 SRBC",9
same,Anti-SRBC Antibody Value N,"[2]; 500 mg/kg for 6 days, 2.5 × 10^8 SRBC",8
same,Anti-SRBC Antibody Value N,[2]; [6],8
same,Anti-SRBC Antibody Value N,[2]; [7],4
same,hemagglutination reaction,[2]; level of more than 500 mg/Kg,subsided
same,Anti-SRBC Antibody Value N,[2]; [8],6-7
same,Anti-SRBC Antibody Value N,[2]; [9],9-10
same,Anti-SRBC Antibody Value N,[2]; [10],9
same,Increase of Ear control %,[3]; [11],122.6%
same,Thickness × 10^-3cm Increase of Ear,[3]; [11],14.1 ± 3.6 × 10^-3cm
same,Increase of Ear control %,[3]; [12],136.5%
same,Thickness × 10^-3cm Increase of Ear,[3]; [12],15.7 ± 2.5 × 10^-3cm
same,Increase of Ear control %,[3]; [13],185.2%
same,Thickness × 10^-3cm Increase of Ear,[3]; [13],21.3 ± 8.7 × 10^-3cm
same,DHR with 1% picryl chloride,"[3]; doses of 50, 250 and 500 mg/Kg",increasing trend of reaction
same,solubility in water,[4],readily soluble in water
same,safety in use as anorexia treating agent,[5],confirmed to be safe
